These results are taken from article PMC9325269, “New Polymethoxyflavones from Hottonia palustris Evoke DNA Biosynthesis-Inhibitory Activity in An Oral Squamous Carcinoma (SCC-25) Cell Line” (Molecules, 2022).

Like-named read-outs stand apart in the source and are kept apart here.

A word on the IC50: it is the concentration needed to halve the response being measured.

For assay [1], the system named is human tongue squamous carcinoma cells SCC-25. Put plainly: MTT cell viability assay, SCC-25 cells. The format is cell-based. The conditions noted are these: read-out: IC50 of viability, SCC-25. Background: Tetrazolium dyes change colour on reduction, which living cells bring about.
Method: (§1) The cell viability and proliferation assays were performed on the human tongue squamous cell line (SCC-25). The cells were obtained from ATCC (CRL-1628, American Type Culture Collection, Manassas, VA, USA) and cultured in a 1:1 mixture of DMEM (Dulbecco’s minimal essential medium) and Ham’s F12 medium (Thermo Fisher Scientific, Waltham, MA, USA, 31330038) supplemented with 400 ng/mL hydrocortisone (Sigma-Aldrich, Burlington, MA, USA, H0135), 10% FBS (fetal bovine serum, Thermo Fisher Scientific, Waltham, MA, USA, 10270106), and penicillin–streptomycin solution (Thermo Fisher Scientific, Waltham, MA, USA, 15140122). Furthermore, for the cytotoxicity assay, human skin fibroblasts (CCD25Sk) cultured in DMEM (Thermo Fisher Scientific, Waltham, MA, USA, 41966029) supplemented with 10% FBS and penicillin-streptomycin solution were used. The cells were incubated at 37 °C in the air with 5% CO2. […] MTT (M5655), SDS (L3771), and cisplatin (cPT), which was used as a positive control (P4394), were purchased from Sigma-Aldrich (Burlington, MA, USA).
(§2) The cell viability assay leans on the transformation of yellow tetrazolinum bromide MTT solution to the purple derivative of formazan via succinate dehydrogenase, an enzyme present in viable cells. Cells were cultured (1 × 10^4 per well) on a 96-well plate to receive 70% of their confluency. After 24 h and 48 h of incubation with the studied samples (prepared as DMSO solutions directly before the assay), the cells were washed with PBS (phosphate-buffered saline). Subsequently, the MTT solution was added, and the plates were incubated at 37 °C for 2 h. Then, formazan crystals were dissolved in 200 μL of DMSO with Sorensen’s glycine buffer and were shacked for 10 min.
Assay [2] has as its system SCC-25 squamous carcinoma cells. Kind of assay: Morphological profile of SCC-25 cells (microphotographs). The format is cell-based, human. The settings on record: 24 h and 48 h; extracts 100 µg/mL, compounds 100 µM.
Another assay concerns normal fibroblasts. Put plainly: MTT cell viability assay, normal fibroblasts. The format is cell-based, human. The settings on record: read-out: IC50 of viability, Fibroblasts.
Another assay has as its system melanoma cells. The settings on record: cited from earlier work.
In assay [3] the test system is DNA biosynthesis in SCC-25 cells. Kind of assay: [3H]-thymidine incorporation (DNA biosynthesis / proliferation) assay. The format is cell-based. The settings on record: Homo sapiens; 48 h treatment of SCC-25 cells (as stated in abstract); read-out: DNA biosynthesis-inhibitory activity IC50. A general note: Dividing cells build labelled thymidine or BrdU into new DNA.
Method: Considering this fact, an evaluation determining whether the cytotoxicity of the samples was the result of their influence on the biosynthesis of cell DNA was carried out by assessing the capability of intracellular thymidine incorporation.
The proliferation of the tested cells was estimated as [^3H]-thymidine incorporation into the DNA of the cells treated with the studied samples [40]. Firstly, cells (1 × 10^4 per well) were placed in 24-well plates and were allowed to adhere for 24 h. […] After incubation for 24 h and 48 h at 37 °C, the cells were rinsed with PBS and solubilized with 1 mL of 0.1 M NaOH (sodium hydroxide) containing 1% SDS (sodium dodecyl sulfate). Then, radioactivity was recorded in a Liquid Scintillation Analyzer (Perkin-Elmer, Waltham, MA, USA) after correction to 9 mL with scintillation liquid.

Setting [4] is: 24 h, MTT, compounds 6.25–200 µM.
Where [5] appears, read: 48 h, MTT, compounds 6.25–200 µM.
[6] abbreviates: Homo sapiens, SCC-25, 24 h, MTT, compounds 6.25–200 µM.
The mark [7] stands for this setting: Homo sapiens, SCC-25, 48 h, MTT, compounds 6.25–200 µM.

Method for normal fibroblasts: as §1, §2

For `N.N.[Cl][Pt][Cl]` [cPT, cisplatin, reference compound], the IC50 in assay [1] (setting [4]) is 26.1 ± 1.03 µM; in assay [1] (setting [5]), 7.58 ± 0.37 µM; with normal fibroblasts (setting [4]), > 200 µM; in the assay on normal fibroblasts (setting [5]), 40.5 ± 2.01 µM. Also, the “morphological profile, cell adhesion and number of cells versus untreated” value in assay [2] is “decreased the number of cells”.
Regarding `COc1ccccc1-c1cc(=O)c2c(O)cccc2o1` [Compound 3, 5-hydroxy-2-(2-methoxyphenyl)-4H-chromen-4-one], the IC50 in assay [1] (Homo sapiens, SCC-25, 24 h) is > 200 µM; in assay [1] (Homo sapiens, SCC-25, 48 h) it was > 200 µM.
On to `COc1cccc(OC)c1-c1cc(=O)c2c(O)cccc2o1` [Compound 4, 5-hydroxy-2-(2,6-dimethoxyphenyl)-4H-chromen-4-one], for which the IC50 in assay [1] (Homo sapiens, SCC-25, 24 h) is > 200 µM; in assay [1] (Homo sapiens, SCC-25, 48 h) it was > 200 µM.
With `O=C(CC(=O)c1ccccc1)c1ccccc1` [Compound 1, 1,3-diphenylpropane-1,3-dione], the IC50 in assay [1] (Homo sapiens, SCC-25, 24 h) was 40 ± 1.89 µM; in assay [1] (Homo sapiens, SCC-25, 48 h), 29.1 ± 1.45 µM; in assay [3], 29.1 ± 1.45 µM; in the assay with normal fibroblasts (Homo sapiens, Fibroblast, 24 h), > 200 µM; in the assay with normal fibroblasts (Homo sapiens, Fibroblast, 48 h) it was > 200 µM. In assay [2], the “morphological profile, cell adhesion and number of cells versus untreated” value is recorded as “decreased the number of cells”. The cell cycle effect result with melanoma cells is “cell-cycle deregulation”.
Regarding `O=c1cc(-c2ccccc2)oc2cccc(O)c12` [Compound 2, 5-hydroxy-2-phenyl-4H-chromen-4-one], the half-inhibitory concentration (IC50) in assay [1] (setting [6]) and in assay [1] (setting [7]) was > 200 µM in each case.
On to `COc1cccc(O)c1-c1cc(=O)c2c(O)cccc2o1` [Compound 6, 5-hydroxy-2-(2-hydroxy-6-methoxyphenyl)-4H-chromen-4-one], for which the IC50 in assay [1] (setting [6]) and in assay [1] (setting [7]) was > 200 µM throughout.
Take `COc1ccc(OC)c(-c2cc(=O)c3c(O)cccc3o2)c1OC` [Compound 5, 5-hydroxy-2-(2,3,6-trimethoxyphenyl)-4H-chromen-4-one]: the IC50 was > 200 µM in assay [1] (Homo sapiens, SCC-25, 24 h) and > 200 µM in assay [1] (Homo sapiens, SCC-25, 48 h).
On to `COc1ccc(O)c(-c2cc(=O)c3c(O)cccc3o2)c1OC` [Compound 7, 5-hydroxy-2-(6-hydroxy-2,3-dimethoxyphenyl)-4H-chromen-4-one], for which the IC50 in assay [1] (Homo sapiens, SCC-25, 24 h) was 78.2 ± 3.25 µM; in assay [1] (Homo sapiens, SCC-25, 48 h), 40.6 ± 1.65 µM; in assay [3], 40.6 ± 1.65 µM; in the assay with normal fibroblasts (Homo sapiens, Fibroblast, 24 h), > 200 µM; in the assay with normal fibroblasts (Homo sapiens, Fibroblast, 48 h), > 200 µM. Besides, in assay [2], the “morphological profile, cell adhesion and number of cells versus untreated” value is given as “decreased the number of cells”.
